Measurements published in ChEMBL document CHEMBL5352398 (Eur J Med Chem, 2022).
Active and inactive are the calls of the source. The rule behind the calls is not given here.

What was measured:
[1] = Hepatotoxicity in Kunming mouse assessed as increase in AST level in serum at 50 mg/kg,po for 14 days in presence of BSO; assay type: toxicity, organism-based; settings: in vivo, 336 h, time 14 day
[2] = target: T1, Solute carrier family 2, facilitated glucose transporter member 9 (Mus musculus, UniProt Q3T9X0); assay: Inhibition of mouse GLUT9 transfected in human HEK293 cells assessed as inhibition of uric acid induced current by cell patch-clamp assay; assay type: cell-based
T1 sequence (Q3T9X0 whole entry): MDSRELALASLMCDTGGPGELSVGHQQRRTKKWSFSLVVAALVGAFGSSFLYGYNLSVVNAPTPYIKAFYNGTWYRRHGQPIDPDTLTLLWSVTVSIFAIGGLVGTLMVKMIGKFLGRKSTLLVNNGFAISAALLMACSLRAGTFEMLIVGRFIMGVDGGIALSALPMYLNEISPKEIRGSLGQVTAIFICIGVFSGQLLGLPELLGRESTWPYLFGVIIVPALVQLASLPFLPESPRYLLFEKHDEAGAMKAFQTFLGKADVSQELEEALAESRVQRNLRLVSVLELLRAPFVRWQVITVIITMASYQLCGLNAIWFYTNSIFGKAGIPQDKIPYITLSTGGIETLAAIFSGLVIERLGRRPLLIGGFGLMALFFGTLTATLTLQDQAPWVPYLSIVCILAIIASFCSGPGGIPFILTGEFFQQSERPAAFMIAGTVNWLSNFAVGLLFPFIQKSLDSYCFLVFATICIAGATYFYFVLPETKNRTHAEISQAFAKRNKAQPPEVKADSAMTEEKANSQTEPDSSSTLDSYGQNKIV

[3] = Tmax in Sprague-Dawley rat at 5 mg/kg, po and measured upto 24 hrs by LC-MS/MS analysis; assay type: ADME, organism-based; settings: in vivo
[4] = Tmax in Sprague-Dawley rat at 5 mg/kg, iv and measured upto 24 hrs by LC-MS/MS analysis; assay type: ADME, organism-based; settings: in vivo
[5] = Cmax in Sprague-Dawley rat at 5 mg/kg, po and measured upto 24 hrs by LC-MS/MS analysis; assay type: ADME, organism-based; set-up: dose 5 mg/kg, time < 24 hrs, route po; settings: in vivo
[6] = Half life in Sprague-Dawley rat at 5 mg/kg, po and measured upto 24 hrs by LC-MS/MS analysis; assay type: ADME, organism-based; settings: in vivo
[7] = Half life in Sprague-Dawley rat at 5 mg/kg, iv and measured upto 24 hrs by LC-MS/MS analysis; assay type: ADME, organism-based; settings: in vivo
[8] = AUC(0 to infinity) in Sprague-Dawley rat at 5 mg/kg, po and measured upto 24 hrs by LC-MS/MS analysis; assay type: ADME, organism-based; set-up: time < 24 hrs, dose 5 mg/kg, route po; settings: in vivo
[9] = MRT (0 to infinity) in Sprague-Dawley rat at 5 mg/kg, iv and measured upto 24 hrs by LC-MS/MS analysis; assay type: ADME, organism-based; settings: in vivo
[10] = Oral bioavailability in Sprague-Dawley rat at 5 mg/kg and measured upto 24 hrs by LCMS analysis; assay type: ADME, organism-based; settings: in vivo
[11] = Cytotoxicity against human HepG2 cells assessed as inhibition of cell growth at 400 uM incubated for 72 hrs by MTT assay relative to control; assay type: toxicity, cell-based
[12] = Cytotoxicity against human HK-2 cells assessed as inhibition of cell growth at 400 uM incubated for 72 hrs by MTT assay relative to control; assay type: toxicity, cell-based
[13] = Subacute toxicity in Kunming mouse assessed as animal death at 50 mg/kg,po for 14 days; assay type: organism-based; settings: in vivo, 336 h, time 14 day
[14] = Subacute toxicity in Kunming mouse assessed as clonic convulsion at 50 mg/kg,po for 14 days; assay type: organism-based; settings: in vivo, 336 h, time 14 day
[15] = Subacute toxicity in Kunming mouse assessed as ruffled fur at 50 mg/kg,po for 14 days; assay type: organism-based; settings: in vivo, 336 h, time 14 day
[16] = Hepatotoxicity in Kunming mouse assessed as increase in ALT level in serum at 50 mg/kg,po for 14 days in presence of BSO; assay type: toxicity, organism-based; settings: in vivo, 336 h, time 14 day
[17] = Hepatotoxicity in Kunming mouse assessed as reduction in serum GSH level at 50 mg/kg, ip and incubated for 12 hrs; assay type: toxicity, organism-based; settings: in vivo
[18] = Toxicity in Kunming mouse assessed as irregular cell arrangements at 50 mg/kg, po and measured after 14 days by HE staining based microscopy; assay type: organism-based; settings: in vivo, 336 h, time 14 day
[19] = Toxicity in Kunming mouse assessed as inflammatory infiltration in liver at 50 mg/kg, po administered and measured after 14 days by HE staining; assay type: organism-based; settings: in vivo, 336 h, time 14 day
[20] = Toxicity in Kunming mouse assessed as appearance of normal tubular structure in kidney at 50 mg/kg, po administered and measured after 14 days by HE staining; assay type: organism-based; settings: in vivo, 336 h, time 14 day
Mus musculus = assay: Anti-hyperuricemic activity against potassium oxonate induced hyperuricemia in Kunming mouse model assessed as decrease in serum urate level at 4 mg/kg, po and measured after 3 hrs; assay type: functional, organism-based
[21] = Toxicity in Kunming mouse assessed as mild inflammatory infiltration in liver at 50 mg/kg, po and measured after 14 days by HE staining based microscopy; assay type: organism-based; settings: in vivo, 336 h, time 14 day
[22] = Toxicity in Kunming mouse assessed as inflammatory infiltration in kidney at 50 mg/kg, po administered and measured after 14 days by HE staining; assay type: organism-based; settings: in vivo, 336 h, time 14 day

**Q.** Which results are given for `CCc1oc2ccccc2c1C(=O)c1cc(Br)c(O)c(Br)c1` [BENZBROMARONE]?
**A.** Activity [1]: Non-Toxic; IC50 [2]: > 20 µM; Tmax [3]: 0.63 h; Tmax [4]: 0.5 h; Cmax [5]: 4250 ng/mL; half-life [6]: 1.79 h; half-life [7]: 3.03 h; AUC(0-inf) [8]: 11100 ng·h/mL; MRT inf [9]: 3.75 h; bioavailability [10]: 36.1%; inhibition at 72 h, 400 µM [11]: 65.7%; inhibition at 72 h, 400 µM [12]: 40.1%; Activity [13]: Non-Toxic; Activity [14]: Non-Toxic; Activity [15]: Non-Toxic; Activity [16]: Non-Toxic; Activity [17]: Toxic; Activity [18]: Non-Toxic; Activity [19]: Non-Toxic; Activity [20]: Non-Toxic; Activity (Mus musculus): Active; Activity [21]: Toxic; Activity [22]: Toxic
